Experimental data taken from patent US11103158B2, “Pure non-invasive method for identification of organ diseases or impaired organ function by investigation of marker substances in exhaled air stimulated by inhaled marker substances” (FREIE UNIVERSITÄT BERLIN, priority 2015, dated 2021).
Read-outs that look alike come from different tables or passages of the source.

Assays:
[1] = in vivo
[2] = PTR-MS of volatile organic compounds in exhaled breath of vegan persons, volunteers and liver patients, also grouped by LiMAx value
CYP 2C9 and CYP 2C19 = conditions: reported by Mizayawa et al.; cited from earlier work
[3] = test system: mammary, liver, lung, and other cancers; conditions: literature reports (Mizayawa et al.; Gold 1997); cited from earlier work

| Compound | concentration in exhaled breath (m/z 137) [1] | concentration in the expiratory air (m/z 137) [1] | other results |
| --- | --- | --- | --- |
| C=C1CCC2CC1C2(C)C (stereo not drawn) [β-pinene] | almost identical | significantly increased | – |
| γ-pinene | almost identical | significantly increased | – |
| CC1=CCC2CC1C2(C)C (stereo not drawn) [α-pinene] | almost identical | significantly increased | – |
| C=C(C)[C@H]1CC=C(C)CC1 [limonene] | – | – | concentration in exhaled breath (m/z 137) ([2]; comparison of the three groups (vegan diet, normal diet, liver disease patients), taking error bars into account, FIG. 1A): almost identical; concentration in the expiratory air (m/z 137) ([2]; patients with LiMAx value below 176 compared to LiMAx 176 to 351 or above 351, FIG. 1B): significantly increased; metabolization by enzymes (CYP 2C9 and CYP 2C19): metabolized by enzymes of the Cytochrome P450 family |
| C=C(C)[C@@H]1CC=C(CO)CC1 [perillyl alcohol] | – | – | chemopreventive activity / cancer prevention [3]: prevent mammary, liver, lung, and other cancers |
